Like-named read-outs stand apart in the source and are kept apart here.
Assays:
[1] = test system: P388 cancer cell; experiment: Anti-tumor test, P388-inoculated mice (survival effect); format: in vivo; details: Mus musculus, P388, ip, intraperitoneal, CDF1 mice; for response vs control in vivo at 12.5 mg/kg / responders at 12.5 mg/kg: 12.5 mg/Kg/day; for response vs control in vivo at 25 mg/kg / responders at 25 mg/kg: 25 mg/Kg/day; for response vs control in vivo at 50 mg/kg / responders at 50 mg/kg: 50 mg/Kg/day
Experimental: Each experimental group was composed of six CDF1 mice. The mice were inoculated intraperitoneally with 10^6 P388 cancer cell, and the test compounds suspended in a gum arabic were administered intraperitoneally to the animals 24 hours and 5 days, respectively, after the inoculation. The survival effect of each of the compounds was expressed by the percentage of the survival days of the treated animals in each group relative to those of the control animals.

[2] = Acute toxicity (median lethal dose, intraperitoneal); details: mouse, in vivo, ip; intraperitoneal injection, ddy mice, Litchfield-Wilcoxon method
Experimental: The median lethal dose (LD50) of each of the test compounds was determined by the Litchfield-Wilcoxon method after the intraperitoneal injection of the compound into ddy mice.

[3] = 24 hours and 5 days after inoculation, read-out: Survival Effect T/C
[4] = of six mice, read-out: Cure (converted)
[5] = of six mice, read-out: Tumored Survivors (converted)
[6] = 100 mg/Kg/day, 24 hours and 5 days after inoculation, read-out: Survival Effect T/C

## C[C@@H](O)[C@H](NC(=O)N(CCCl)N=O)C(=O)Nc1nncs1 (relative stereo) [L]
[1]; [3]
  response vs control in vivo at 12.5 mg/kg: 153%
  response vs control in vivo at 25 mg/kg: 93%
  response vs control in vivo at 50 mg/kg: 81%
[1]; [4]
  responders at 25 mg/kg: 16.7%
[2]
  LD50: 65 mg/kg

## O=NN(CCCl)C(=O)Nc1nncs1 [A]
[1]; [3]
  response vs control in vivo at 12.5 mg/kg: 170%
  response vs control in vivo at 25 mg/kg: 173%
  response vs control in vivo at 50 mg/kg: 172%
[2]
  LD50: 78 mg/kg

## CC(C)[C@H](NC(=O)N(CCCl)N=O)C(=O)O [B]
[1]; [3]
  response vs control in vivo at 25 mg/kg: 230%
  response vs control in vivo at 50 mg/kg: 297%
[1]; [4]
  responders at 50 mg/kg: 16.7%
[1]; [5]
  responders at 50 mg/kg: 16.7%
[2]
  LD50: 72 mg/kg

## CC(C)[C@H](NC(=O)N(CCCl)N=O)C(=O)Nc1nncs1 [D]
[1]; 6.25 mg/Kg/day, 24 hours and 5 days after inoculation, read-out: Survival Effect T/C
  response vs control in vivo at 6.25 mg/kg: 223%
[1]; [3]
  response vs control in vivo at 12.5 mg/kg: 281%
  response vs control in vivo at 25 mg/kg: 291%
[1]; [4]
  responders at 25 mg/kg: 83.3%
[2]
  LD50: 49 mg/kg

## CC(C)CC(NC(=O)N(CCCl)N=O)C(=O)Nc1nncs1 (stereo not drawn) [E]
[1]; [3]
  response vs control in vivo at 12.5 mg/kg: 220%
  response vs control in vivo at 25 mg/kg: 303%
  response vs control in vivo at 50 mg/kg: 303%
[1]; [4]
  responders at 25 mg/kg: 33.3%
  responders at 50 mg/kg: 83.3%
[1]; [5]
  responders at 25 mg/kg: 16.7%
[2]
  LD50: 82 mg/kg

## CC(C)C[C@H](NC(=O)N(CCCl)N=O)C(=O)Nc1nncs1 [F]
[1]; [3]
  response vs control in vivo at 12.5 mg/kg: 292%
  response vs control in vivo at 25 mg/kg: 303%
[1]; [4]
  responders at 12.5 mg/kg: 16.7%
  responders at 25 mg/kg: 50%
[1]; [5]
  responders at 12.5 mg/kg: 16.7%
  responders at 25 mg/kg: 33.3%
[2]
  LD50: 85 mg/kg

## CC[C@H](C)[C@H](NC(=O)N(CCCl)N=O)C(=O)Nc1nncs1 [G]
[1]; [3]
  response vs control in vivo at 12.5 mg/kg: 247%
  response vs control in vivo at 25 mg/kg: 297%
  response vs control in vivo at 50 mg/kg: 297%
[1]; [4]
  responders at 12.5 mg/kg: 16.7%
  responders at 25 mg/kg: 16.7%
  responders at 50 mg/kg: 50%
[1]; [5]
  responders at 25 mg/kg: 50%
  responders at 50 mg/kg: 33.3%
[2]
  LD50: 78 mg/kg

## CSCC[C@H](NC(=O)N(CCCl)N=O)C(=O)Nc1nncs1 [H]
[1]; [3]
  response vs control in vivo at 12.5 mg/kg: 235%
  response vs control in vivo at 25 mg/kg: 294%
  response vs control in vivo at 50 mg/kg: 294%
[1]; [4]
  responders at 12.5 mg/kg: 16.7%
  responders at 25 mg/kg: 50%
  responders at 50 mg/kg: 83.3%
[1]; [5]
  responders at 25 mg/kg: 33.3%
  responders at 50 mg/kg: 16.7%
[2]
  LD50: 67 mg/kg

## O=NN(CCCl)C(=O)N[C@@H](C(=O)Nc1nncs1)c1ccccc1 [I]
[1]; [3]
  response vs control in vivo at 12.5 mg/kg: 297%
  response vs control in vivo at 25 mg/kg: 297%
  response vs control in vivo at 50 mg/kg: 297%
[1]; [4]
  responders at 12.5 mg/kg: 33.3%
  responders at 25 mg/kg: 33.3%
  responders at 50 mg/kg: 83.3%
[1]; [5]
  responders at 12.5 mg/kg: 16.7%
  responders at 25 mg/kg: 33.3%
[2]
  LD50: 69 mg/kg

## O=NN(CCCl)C(=O)N[C@@H](Cc1ccccc1)C(=O)Nc1nncs1 [J]
[1]; [3]
  response vs control in vivo at 12.5 mg/kg: 297%
  response vs control in vivo at 25 mg/kg: 297%
  response vs control in vivo at 50 mg/kg: 297%
[1]; [4]
  responders at 12.5 mg/kg: 33.3%
  responders at 25 mg/kg: 83.3%
  responders at 50 mg/kg: 66.7%
[1]; [5]
  responders at 12.5 mg/kg: 16.7%
  responders at 50 mg/kg: 16.7%
[2]
  LD50: 74 mg/kg

## O=NN(CCCl)C(=O)NC1(C(=O)Nc2nncs2)CCCC1 [K]
[1]; [3]
  response vs control in vivo at 12.5 mg/kg: 175%
  response vs control in vivo at 25 mg/kg: 176%
  response vs control in vivo at 50 mg/kg: 176%
[2]
  LD50: 53 mg/kg

## O=NN(CCCl)C(=O)N[C@@H](Cc1c[nH]c2ccccc12)C(=O)Nc1nncs1 [M]
[1]; [3]
  response vs control in vivo at 25 mg/kg: 294%
  response vs control in vivo at 50 mg/kg: 294%
[1]; [4]
  responders at 25 mg/kg: 83.3%
  responders at 50 mg/kg: 50%
[1]; [5]
  responders at 50 mg/kg: 33.3%
[1]; [6]
  response vs control in vivo at 100 mg/kg: 107%
[1]; 100 mg/Kg/day, of six mice, read-out: Cure (converted)
  responders at 100 mg/kg: 16.7%
[2]
  LD50: 73 mg/kg

## CC(C)[C@@H](NC(=O)N(CCCl)N=O)C(=O)Nc1nncs1 [N]
[1]; [3]
  response vs control in vivo at 25 mg/kg: 217%
  response vs control in vivo at 50 mg/kg: 99%
[1]; [4]
  responders at 25 mg/kg: 16.7%
  responders at 50 mg/kg: 33.3%
[2]
  LD50: 68 mg/kg

## CC(C)C[C@@H](NC(=O)N(CCCl)N=O)C(=O)Nc1nncs1 [O]
[1]; [3]
  response vs control in vivo at 25 mg/kg: 190%
  response vs control in vivo at 50 mg/kg: 217%
[1]; [6]
  response vs control in vivo at 100 mg/kg: 188%
[2]
  LD50: 61 mg/kg

Source: US4335247A, “Novel nitrosourea derivatives and process for their production” (Kowa Co., Ltd., priority 1980, dated 1982)
